From patent publication US12071425B2 (Genentech, Inc., priority 2018, dated 2024)
Counter-ions that a name gives are not always drawn.

Target: kinase domain of IRE1 alpha (His-tagged kinase dead construct KR, AA G547-L977, D688N) (Homo sapiens (Human), UniProt O75460, D688N)
Experiment: IRE1α TR-FRET competition binding assay
Details: competition with Kinase Tracer 236, 0.1 μM; one hour at room temperature
In short: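 Sf9-expressed kinase-dead KR construct (0.006 μM final) pre-incubated 1 h at 4° C with Eu anti-His antibody (0.002 μM) in HEPES pH 7.5/MgCl2/Brij/DTT buffer; Kinase Tracer 236 (ATP-competitive probe, 0.1 μM final) added with compound. 1 h at room temperature; tracer displacement read by TR-FRET (665/615 nm).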

Sequence of kinase domain of IRE1 alpha (His-tagged kinase dead construct KR, AA G547-L977, D688N) (O75460 547-977 D688N): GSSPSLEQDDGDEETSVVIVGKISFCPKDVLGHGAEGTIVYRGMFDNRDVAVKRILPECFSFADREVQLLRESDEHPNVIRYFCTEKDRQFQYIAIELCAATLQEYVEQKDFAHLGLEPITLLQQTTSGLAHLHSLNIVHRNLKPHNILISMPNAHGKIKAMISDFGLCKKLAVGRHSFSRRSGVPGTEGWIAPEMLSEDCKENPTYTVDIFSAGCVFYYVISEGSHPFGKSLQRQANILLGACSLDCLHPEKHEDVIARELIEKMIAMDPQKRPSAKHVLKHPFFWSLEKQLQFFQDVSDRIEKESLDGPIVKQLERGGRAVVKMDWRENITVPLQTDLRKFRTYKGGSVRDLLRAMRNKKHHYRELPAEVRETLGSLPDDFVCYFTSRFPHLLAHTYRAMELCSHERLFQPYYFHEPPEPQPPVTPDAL

Row | Compound | IC50
1 | O=S(=O)(Cc1cccnc1C(F)(F)F)Nc1c(F)cc(Oc2ncccc2-c2ccnc(N[C@@H]3CNC[C@@H](F)C3)n2)c(F)c1F [Compound 389, N-(2,3,6-Trifluoro-4-((3-(2-(((3S,5S)-5-fluoropiperidin-3-yl)amino)pyrimidin-4-yl)pyridin-2-yl)oxy)phenyl)-1-(2-(trifluoromethyl)pyridin-3-yl)methanesulfonamide] | 0.0003 µM
2 | O=S(=O)(Cc1ccccc1)Nc1c(F)cc(Oc2ncccc2-c2ccnc(NC3CC4CCCN(C4)C3)n2)c(F)c1F (single isomer, unassigned) [Compound 287, N-(4-((3-(2-((1-azabicyclo[3.3.1]nonan-3-yl)amino)pyrimidin-4-yl)pyridin-2-yl)oxy)-2,3,6-trifluorophenyl)-1-phenylmethanesulfonamide hydrochloride] | 0.0015 µM
3 | Cc1cc(F)ccc1CS(=O)(=O)Nc1c(F)cc(Oc2ncccc2-c2ccnc(N[C@@H]3CNC[C@@H](F)C3)n2)c(F)c1F [Compound 322, 1-(4-Fluoro-2-methylphenyl)-N-(2,3,6-trifluoro-4-((3-(2-(((3S,5S)-5-fluoropiperidin-3-yl)amino)pyrimidin-4-yl)pyridin-2-yl)oxy)phenyl)methanesulfonamide] | 0.00042 µM
4 | Cc1c(NS(=O)(=O)Cc2ccccc2)cccc1Oc1ncccc1-c1ccnc(N[C@H]2CCCNC2)n1 [Compound 140, (S)—N-(2-Methyl-3-((3-(2-(piperidin-3-ylamino)pyrimidin-4-yl)pyridin-2-yl)oxy)phenyl)-1-phenylmethanesulfonamide hydrochloride] | 0.026 µM
5 | CCCS(=O)(=O)Nc1ccc(Cl)c(Oc2ncccc2-c2ccnc(N[C@H]3CCCNC3)n2)c1F [Compound 143, (S)—N-(4-Chloro-2-fluoro-3-((3-(2-(piperidin-3-ylamino)pyrimidin-4-yl)pyridin-2-yl)oxy)phenyl)propane-1-sulfonamide hydrochloride] | 0.034 µM
6 | O=S(=O)(Cc1ccccc1)Nc1ccc(Oc2ncccc2-c2ccnc(N[C@H]3CCNC3)n2)c(F)c1F [Compound 167, (S)—N-(2,3-Difluoro-4-((3-(2-(pyrrolidin-3-ylamino)pyrimidin-4-yl)pyridin-2-yl)oxy)phenyl)-1-phenylmethanesulfonamide] | 0.017 µM
7 | CCC1CCN(c2ccc(Oc3ncccc3-c3ccnc(N[C@H]4CCCNC4)n3)c(F)c2F)C1=O (single isomer, unassigned) [Compound 249] | 0.16 µM

Now from value to compound:

Row | IC50 | Compound
8 | 0.057 µM | CN(C)CCNc1nccc(-c2cccnc2Oc2ccc(NS(=O)(=O)Cc3ccccc3)c(F)c2F)n1 [Compound 184, N-(4-((3-(2-((2-(dimethylamino)ethyl)amino)pyrimidin-4-yl)pyridin-2-yl)oxy)-2,3-difluorophenyl)-1-phenylmethanesulfonamide]
9 | 0.00041 µM | Cc1c(Oc2ncccc2-c2ccnc(N[C@@H]3CNC[C@@H](F)C3)n2)cc(F)c(NS(=O)(=O)Cc2c(F)cccc2F)c1F [Compound 293, N-(2,6-Difluoro-4-((3-(2-(((3S,5S)-5-fluoropiperidin-3-yl)amino)pyrimidin-4-yl)pyridin-2-yl)oxy)-3-methylphenyl)-1-(2,6-difluorophenyl)methanesulfonamide]
10 | 0.0004 µM | O=S(=O)(Cc1ccccc1F)Nc1c(F)cc(Oc2ncccc2-c2ccnc(NC3CNCC(C4CC4)C3)n2)c(F)c1F (single isomer, unassigned) [Compound 324, N-(4-((3-(2-((5-Cyclopropylpiperidin-3-yl)amino)pyrimidin-4-yl)pyridin-2-yl)oxy)-2,3,6-trifluorophenyl)-1-(2-fluorophenyl)methanesulfonamide]
11 | 0.042 µM | CNCCNc1nccc(-c2cccnc2Oc2ccc(NS(=O)(=O)Cc3ccccc3)c(F)c2F)n1 [Compound 172, N-(2,3-difluoro-4-((3-(2-(2-(methylamino)ethylamino)pyrimidin-4-yl)-2-pyridyl)oxy)phenyl)-1-phenyl-methanesulfonamide]
